From ChEMBL document CHEMBL1201862, “PubChem BioAssay data set” (2004)
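Following 48 hours of exposure in 96-well plates, responses at five concentrations were used to interpolate endpoints linearly. At the GI50, growth is halved.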 Calls of active or inactive are those of the source. Cut-off read from the data, not from the text of the source: active = GI50 up to about 1.1 µM and inactive = higher.

Assays:
Test in all cases: inhibition of tumour cell growth, NCI panel, 48 h
PC-3 = system: PC-3
OVCAR-8 = system: OVCAR-8
DU-145 = system: DU-145
HCT-116 = system: HCT-116
CAKI-1 = system: CAKI-1
MCF7 = system: MCF7
M14 = system: M14
SK-MEL-28 = system: SK-MEL-28
Hs-578T = system: Hs-578T
NCI-H522 = system: NCI-H522
HCT-15 = system: HCT-15
U-251 = system: U-251
RXF 393 = system: RXF 393
RPMI-8226 = system: RPMI-8226
IGROV-1 = system: IGROV-1
EKVX = system: EKVX
SF-295 = system: SF-295
SF-268 = system: SF-268
BT-549 = system: BT-549
OVCAR-5 = system: OVCAR-5
UACC-62 = system: UACC-62
SNB-19 = system: SNB-19
HOP-62 = system: HOP-62
CCRF-CEM = system: CCRF-CEM
LOX IMVI = system: LOX IMVI
MDA-MB-435 = system: MDA-MB-435
HOP-92 = system: HOP-92
SK-MEL-5 = system: SK-MEL-5
KM12 = system: KM12
Malme-3M = system: Malme-3M
NCI/ADR-RES = system: NCI/ADR-RES
TK-10 = system: TK-10
HL-60 = system: HL-60
SNB-75 = system: SNB-75
A549 = system: A549
SW-620 = system: SW-620
NCI-H23 = system: NCI-H23
COLO 205 = system: COLO 205
UO-31 = system: UO-31
HCC 2998 = system: HCC 2998
UACC-257 = system: UACC-257
OVCAR-3 = system: OVCAR-3
HT-29 = system: HT-29
T47D = system: T47D
A498 = system: A498
SF-539 = system: SF-539
MDA-MB-231 = system: MDA-MB-231
786-0 = system: 786-0
K562 = system: K562
SN12C = system: SN12C
ACHN = system: ACHN
MDA-N = system: MDA-N
SK-MEL-2 = system: SK-MEL-2
OVCAR-4 = system: OVCAR-4
NCI-H460 = system: NCI-H460
MOLT-4 = system: MOLT-4
SR = system: SR
SK-OV-3 = system: SK-OV-3
NCI-H226 = system: NCI-H226

In the case of `COc1ccc2c(c1)[C@@H]1c3cc(OC)c(OC)cc3CCN1CCC2`, the GI50 (PC-3) is reported as 73.5 µM (inactive), the GI50 (OVCAR-8) is reported as > 100 µM (inactive) and the GI50 (DU-145) is reported as > 100 µM (inactive). The GI50 (HCT-116) was 76.2 µM (inactive), the GI50 (CAKI-1) was > 100 µM (inactive) and the GI50 (MCF7) was 83.4 µM (inactive). For the same molecule, the GI50 (M14) was > 100 µM (inactive), the GI50 (SK-MEL-28) was > 100 µM (inactive) and the GI50 (Hs-578T) was > 100 µM (inactive). The GI50 (NCI-H522) was > 100 µM (inactive), the GI50 (HCT-15) was 79.4 µM and the GI50 (U-251) was > 100 µM (inactive). For the same molecule, the GI50 (RXF 393) was > 100 µM (inactive), the GI50 (RPMI-8226) was 54.8 µM (inactive) and the GI50 (IGROV-1) was > 100 µM (inactive). For the same molecule, the GI50 (EKVX) was > 100 µM (inactive), the GI50 (SF-295) was > 100 µM (inactive) and the GI50 (SF-268) was > 100 µM (inactive). The GI50 (BT-549) was 68.9 µM (inactive), the GI50 (OVCAR-5) was > 100 µM (inactive) and the GI50 (UACC-62) was > 100 µM (inactive). The GI50 (SNB-19) was > 100 µM (inactive), the GI50 (HOP-62) was > 100 µM (inactive) and the GI50 (CCRF-CEM) was 87.7 µM (inactive). For the same molecule, the GI50 (LOX IMVI) was 98.4 µM (inactive), the GI50 (MDA-MB-435) was > 100 µM (inactive) and the GI50 (HOP-92) was 9.18 µM (inactive). For the same molecule, the GI50 (SK-MEL-5) was 36.7 µM (inactive), the GI50 (KM12) was > 100 µM (inactive) and the GI50 (Malme-3M) was > 100 µM (inactive). For the same molecule, the GI50 (NCI/ADR-RES) was > 100 µM (inactive), the GI50 (TK-10) was > 100 µM (inactive) and the GI50 (HL-60) was > 100 µM (inactive). The GI50 (SNB-75) was > 100 µM (inactive), the GI50 (A549) was > 100 µM (inactive) and the GI50 (SW-620) was > 100 µM (inactive). The GI50 (NCI-H23) was > 100 µM (inactive), the GI50 (COLO 205) was > 100 µM (inactive) and the GI50 (UO-31) was 72.9 µM (inactive). The GI50 (HCC 2998) was > 100 µM (inactive), the GI50 (UACC-257) was 19.7 µM (inactive) and the GI50 (OVCAR-3) was > 100 µM (inactive). The GI50 (HT-29) was 93.1 µM (inactive), the GI50 (T47D) was 31.6 µM (inactive) and the GI50 (A498) was > 100 µM (inactive). For the same molecule, the GI50 (SF-539) was > 100 µM (inactive), the GI50 (MDA-MB-231) was > 100 µM (inactive) and the GI50 (786-0) was > 100 µM (inactive). For the same molecule, the GI50 (K562) was 65.3 µM (inactive), the GI50 (SN12C) was > 100 µM (inactive) and the GI50 (ACHN) was > 100 µM (inactive). The GI50 (MDA-N) was > 100 µM (inactive), the GI50 (SK-MEL-2) was > 100 µM (inactive) and the GI50 (OVCAR-4) was 35.3 µM (inactive). The GI50 (NCI-H460) was 31.4 µM (inactive), the GI50 (MOLT-4) was 33.3 µM (inactive) and the GI50 (SR) was 76 µM (inactive).
With `Cc1cc2nc(N3C(=O)/C(=C/c4ccccc4S)N=C3c3ccccc3)sc2cc1C` the GI50 (PC-3) was 18.5 µM (inactive), the GI50 (OVCAR-8) was 46.5 µM (inactive) and the GI50 (DU-145) was 58.9 µM (inactive). The GI50 (HCT-116) was 18.3 µM (inactive), the GI50 (CAKI-1) was 59.7 µM (inactive) and the GI50 (MCF7) was 20 µM (inactive). For the same molecule, the GI50 (M14) was 34 µM (inactive), the GI50 (SK-MEL-28) was 54.2 µM (inactive) and the GI50 (Hs-578T) was 39.2 µM (inactive). The GI50 (HCT-15) was 32.7 µM, the GI50 (U-251) was 31.5 µM (inactive) and the GI50 (RXF 393) was 29.3 µM (inactive). For the same molecule, the GI50 (RPMI-8226) was 19.2 µM (inactive), the GI50 (IGROV-1) was 18.8 µM (inactive) and the GI50 (EKVX) was 27 µM (inactive). The GI50 (SF-295) was 27.4 µM (inactive), the GI50 (SF-268) was 40.8 µM (inactive) and the GI50 (BT-549) was 28.6 µM (inactive). For the same molecule, the GI50 (OVCAR-5) was 26.5 µM (inactive), the GI50 (UACC-62) was 32 µM (inactive) and the GI50 (SNB-19) was 55.8 µM (inactive). The GI50 (HOP-62) was 88.1 µM (inactive), the GI50 (CCRF-CEM) was 18.8 µM (inactive) and the GI50 (LOX IMVI) was 29.2 µM (inactive). The GI50 (MDA-MB-435) was 22.1 µM (inactive), the GI50 (HOP-92) was 22.4 µM (inactive) and the GI50 (SK-OV-3) was 99.5 µM (inactive). The GI50 (SK-MEL-5) was 29 µM (inactive), the GI50 (KM12) was 34 µM (inactive) and the GI50 (NCI/ADR-RES) was 26.7 µM (inactive). For the same molecule, the GI50 (TK-10) was 58.1 µM (inactive), the GI50 (HL-60) was 30.1 µM (inactive) and the GI50 (SNB-75) was 32.6 µM (inactive). The GI50 (A549) was 36.6 µM (inactive), the GI50 (SW-620) was 37.5 µM (inactive) and the GI50 (COLO 205) was 30.6 µM (inactive). The GI50 (UO-31) was 26.1 µM (inactive), the GI50 (HCC 2998) was 31.8 µM (inactive) and the GI50 (UACC-257) was 23.3 µM (inactive). For the same molecule, the GI50 (OVCAR-3) was 49.3 µM (inactive), the GI50 (HT-29) was 21 µM (inactive) and the GI50 (T47D) was 54.1 µM (inactive). For the same molecule, the GI50 (A498) was 21.7 µM (inactive), the GI50 (SF-539) was 56.6 µM (inactive) and the GI50 (MDA-MB-231) was 18.5 µM (inactive). For the same molecule, the GI50 (786-0) was 18.7 µM (inactive), the GI50 (K562) was 29.3 µM (inactive) and the GI50 (SN12C) was 25.8 µM (inactive). For the same molecule, the GI50 (ACHN) was 32.7 µM (inactive), the GI50 (MDA-N) was 11.6 µM (inactive) and the GI50 (SK-MEL-2) was 18.2 µM (inactive). The GI50 (OVCAR-4) was 43.1 µM (inactive), the GI50 (NCI-H460) was 26.5 µM (inactive) and the GI50 (MOLT-4) was 15.4 µM (inactive). For the same molecule, the GI50 (SR) was 33.2 µM (inactive).
In the case of `OC(c1ccc(Cl)cc1)(c1ccc(Cl)cc1)c1cncnc1`, the GI50 (PC-3) is reported as 12.9 µM (inactive), the GI50 (OVCAR-8) is reported as 21.4 µM (inactive) and the GI50 (DU-145) is reported as 24.6 µM (inactive). For the same molecule, the GI50 (HCT-116) was 14.3 µM (inactive), the GI50 (CAKI-1) was 17.6 µM (inactive) and the GI50 (MCF7) was 25.9 µM (inactive). The GI50 (M14) was 16.7 µM (inactive), the GI50 (SK-MEL-28) was 18.7 µM (inactive) and the GI50 (Hs-578T) was 25.3 µM (inactive). The GI50 (HCT-15) was 19 µM, the GI50 (U-251) was 19.3 µM (inactive) and the GI50 (RXF 393) was 13.4 µM (inactive). For the same molecule, the GI50 (RPMI-8226) was 27.2 µM (inactive), the GI50 (IGROV-1) was > 10 µM (inactive) and the GI50 (SF-295) was 19.1 µM (inactive). The GI50 (BT-549) was 19.2 µM (inactive), the GI50 (OVCAR-5) was 18.9 µM (inactive) and the GI50 (UACC-62) was 14.8 µM (inactive). The GI50 (SNB-19) was 22.5 µM (inactive), the GI50 (HOP-62) was 18.6 µM (inactive) and the GI50 (CCRF-CEM) was 15.3 µM (inactive). For the same molecule, the GI50 (LOX IMVI) was 23.2 µM (inactive), the GI50 (MDA-MB-435) was 18.3 µM (inactive) and the GI50 (HOP-92) was 17.4 µM (inactive). The GI50 (SK-OV-3) was > 10 µM (inactive), the GI50 (SK-MEL-5) was 13.6 µM (inactive) and the GI50 (KM12) was 17.6 µM (inactive). For the same molecule, the GI50 (Malme-3M) was 33.7 µM (inactive), the GI50 (NCI/ADR-RES) was 26.4 µM (inactive) and the GI50 (TK-10) was 21.8 µM (inactive). For the same molecule, the GI50 (HL-60) was > 10 µM (inactive), the GI50 (SNB-75) was 21.2 µM (inactive) and the GI50 (SW-620) was 21.1 µM (inactive). For the same molecule, the GI50 (NCI-H23) was 26.3 µM (inactive), the GI50 (COLO 205) was 19 µM (inactive) and the GI50 (UO-31) was 16 µM (inactive). For the same molecule, the GI50 (HCC 2998) was > 10 µM (inactive), the GI50 (UACC-257) was 19.2 µM (inactive) and the GI50 (OVCAR-3) was 17.1 µM (inactive). The GI50 (HT-29) was 16.6 µM (inactive), the GI50 (T47D) was 28.2 µM (inactive) and the GI50 (A498) was 21.2 µM (inactive). The GI50 (MDA-MB-231) was 18.6 µM (inactive), the GI50 (K562) was 4.5 µM (inactive) and the GI50 (SN12C) was 26.7 µM (inactive). The GI50 (MDA-N) was 19.2 µM (inactive), the GI50 (SK-MEL-2) was 16.6 µM (inactive) and the GI50 (OVCAR-4) was 14.7 µM (inactive). For the same molecule, the GI50 (NCI-H460) was 18.2 µM (inactive), the GI50 (MOLT-4) was 14.8 µM (inactive) and the GI50 (NCI-H226) was 20.7 µM (inactive). The GI50 (SR) was 31.7 µM (inactive).
